Results taken from publication PMC12463120, “Phenylalanine‐Based DNA‐Encoded Chemical Libraries for the Discovery of Potent and Selective Small Organic Ligands Against Markers of Cancer and Immune Cells” (Advanced Science, 2025).
“Also recorded” adds a separate entry of the source.

Experiments:
[1] = test system: NK-92 cells; test: In vitro interferon-gamma release assay on NK-92 cells; format: cell-based, human; conditions: serial dilution from 7.5 µM, 24 h
Experimental: plate (20 µL/well). Test compounds (300 nM, in 175 µL of FACS buffer) were added to the wells containing the beads. Plates were further incubated in the dark at room temperature for 1 hour and subsequently centrifuged at 2’500 rpm at 4 °C for 3 min. Beads were washed and resuspended in FACS buffer (200 µL). Data were acquired halting the measurement at 10’000 events on a Cytoflex S flow cytometer (Beckman Coulter) and analyzed using the FlowJo software v10 (BD Biosciences).
2.19 In vitro interferon-gamma release assay
Compounds 26 and 30 were tested for their ability to induce interferon-gamma (IFN-γ) release upon incubation with NK-cells. NK-92 cells were initially starved for 4 h in plain RPMI medium. […] After 24 h, cell-free supernatants were collected, and the concentration of IFN-γ was measured using the ELISA MAXTM Set Human IFN-γ kit (BioLegend). […]
The sections were blocked with 20% FCS (Invitrogen) and 3% BSA in PBS (pH 7.4) for 30 min and washed three times with PBS (pH 7.4). […] Images were recorded on a CR-35 Bio scanner and processed with the AIDA image analysis […]
2.21 Quantitative in vivo biodistribution studies […]
Figure S39. […] After 24 hours of incubation, IFN-γ levels in the culture supernatant were measured by ELISA. […]

[2] = test system: various unrelated proteins, including TAAs and serological proteins; test: ELISA against multiple proteins (specificity); format: binding
Experimental: 2.13 ACP3 colorimetric enzymatic assay
Grenier 384 transparent, flat-bottom well plates were used. Each test compound was measured in triplicate. 16 µL of a solution of the compound (3µM, 5% DMSO in PBS for small molecules or PBS only for DNA-conjugates, pH 7.4) was loaded into the first well row. A serial 1:2 (on DNA) or 1:3 (off DNA) dilution in DMSO/PBS (5/95, off DNA) or only PBS (on DNA) was performed in a total volume per well of 8 µL. Human recombinant ACP3 (16 µL solution, 2.5 nM in PBS, pH 7.4) was added to each well.
After 10 min of incubation, 16 µL of a solution of para-nitrophenyl phosphate (pNPP, substrate, 5 mM in PBS, pH 7.4) was added. The plate was left to develop in the dark for 16 hours. Enzymatic reaction on the substrate (phosphate group removal by ACP3) was assessed by measuring absorption at 405 vs 620 nm on a Spectra Max Paradigm multimode plate reader ([…]).
2.14 Surface plasmon resonance (SPR)
SPR measurements were performed on a Biacore X100. […]
The protein (100 μL/well, 170 nM) was incubated for 2 h at 4 °C on a StreptaWell plate (transparent 96 - well plate, Roche #11645692001). […] The absorbance was measured at 450 nm (reference level, 620–650 nm) with a Spark multimode microplate reader (Tecan Life Sciences). […]

CC(C)Oc1ccc(-c2cccc(C[C@H](NC(=O)c3ccccc3-c3ccc(C(F)(F)F)cc3)C(=O)N[C@@H](CCCCNC(=S)Nc3ccc4c(c3)C(=O)OC43c4ccc(O)cc4Oc4cc(O)ccc43)C(=O)O)c2)c(F)c1 [compound 30]
IFN-γ release by NK-92 cells [1]: did not induce IFN-γ release; also recorded: not found to induce the release | selectivity by ELISA against multiple proteins [2]: high selectivity over various unrelated proteins
